In publication PMC8952293, “A Histone Deacetylase (HDAC) Inhibitor with Pleiotropic In Vitro Anti-Toxoplasma and Anti-Plasmodium Activities Controls Acute and Chronic Toxoplasma Infection in Mice” (International Journal of Molecular Sciences, 2022):
Read-outs that look alike come from different tables or passages of the source.

How the values were obtained:
[1] = system: P. falciparum NF54; experiment: In vitro P. falciparum erythrocytic infection (SYBR green I flow cytometry); assay type: cell-based; details: Plasmodium falciparum, PfNF54 blood stage, 48 h, three independent experiments
Procedure: Blood stage. Ring-stage synchronized cultures of PfNF54 at 2.5% hematocrit and at approximately 1% parasitemia were incubated with drugs or DMSO (vehicle control) in 96-well plates, for 48 h, at 37 °C in a 5% CO2 and 5% O2 atmosphere. The stock solution of JF363 was prepared in DMSO. Working solutions (1, 10, 100, 200, 500, 1000, 2000 nM) were prepared from the stock solution in a complete malaria culture medium (CMCM), which consisted of RPMI 1640 supplemented with 25 mM HEPES, 2.4 mM L-glutamine, 50 μg/mL gentamicin, 0.5% w/v AlbuMAX (Gibco BRL), 11 mM glucose, 1.47 mM hypoxanthine, and 37.3 mM NaHCO3. Five microliters of the culture (approximately 800,000 cells) was stained with the DNA-specific dye SYBR green I for each measurement. Following 20 min incubation in the dark, the stained sample was analyzed by flow cytometry. For each flow cytometry measurement, approximately 100,000 events were analyzed. All samples were analyzed in triplicate, and three different experiments were performed and analyzed using GraphPad Prism 8 (Prism 4 for Mac OS X, version 5.0b, San Diego, CA, USA).

[2] = system: Huh7 cells; experiment: Host cell viability (cell confluency, AlamarBlue) in the hepatic infection assay; assay type: cell-based, human; details: at the tested concentrations (up to 500 nM)
Procedure: Liver stage. The action of JF363 against the liver stage of P. berghei infection was assessed by bioluminescence, as previously described. Briefly, one day before infection, Huh7 cells were seeded in 96-well plates. JF363 stock solution was prepared in dimethyl sulfoxide (DMSO) and serially diluted in infection medium (culture medium supplemented with 50 µg/mL of gentamicin and 0.8 µg/mL of fungizone) to obtain the test concentrations (1, 10, 25, 50, […], 500 nM). These were added to the cells and incubated for 1 h at 37 °C and 5% CO2, after which 1 × 10^4 sporozoites were added to the wells. Plates were centrifuged at 1800× g for 5 min and incubated at 37 °C with 5% CO2 for the assay duration. At 46 h post-infection, the impact of the compound on cell viability was assessed by the AlamarBlue assay (Invitrogen, Carlsbad, CA, USA), following the manufacturer’s instructions. Following the manufacturer’s instructions, the drug’s effect on the parasite load was next evaluated using the Firefly Luciferase Assay Kit 2.0 (Biotium, Fremont, CA, USA). For IC50 determination, nonlinear regression analysis was employed to fit the normalized results of the dose–response curves, using GraphPad Prism 8 (Prism 4 for Mac OS X, version 5.0b, San Diego, CA, USA).

[3] = system: Toxoplasma gondii; experiment: In vitro anti-Toxoplasma proliferation in infected HFF monolayers (parasitic index, ScanR microscopy); assay type: cell-based
Procedure: To investigate the effect of the JF363 on parasite proliferation, human HFFs were infected and treated with JF363 (concentrations ranging from 0 to 2 μM). After 24 h of culture, parasites were enumerated within the parasitophorous vacuole, and the IC50 was calculated for each parasite strain (Table 1).
To assess the drug activity on Toxoplasma gondii, confluent HFF monolayers were infected with parasites, 5 × 10^4 per well, then centrifuged for 30 s at 500× g and incubated for 30 min in a water bath at 37 °C to allow invasion. The wells were then washed three times with phosphate-buffered saline (PBS) to eliminate extracellular parasites, and drugs were added at various concentrations ranging from 1 to 2 μM in triplicate. After 24 h incubation at 37 °C in a humidified atmosphere containing 5% CO2, Hoechst 33342 (5 μg/mL) was added to host cells infected by parasites and further incubated for 20 min. After two washes, cells were fixed with 3.7% formaldehyde for 10 min at 37 °C.
In experiments using nonfluorescent parasites, Toxoplasma vacuoles were fixed for 15 min with 3.7% formaldehyde and stained with anti-GRA1 mAb diluted 1/500 in 2% bovine serum albumin (BSA) and 0.1% Triton X-100 in PBS, for 1 h at room temperature. After two washes, goat serum anti-mouse IgG (H + L)–Alexa-488 (1/500) was added for 20 min. Finally, Hoechst 33342 was added as described above.
The number of infected cells, i.e., cells harboring parasitophorous vacuoles, and the number of parasites per vacuole were determined using an Olympus ScanR microscope (×20 objective) and ScanR software. First, the parasitic index (PI) in % compared to the control was calculated as follows: PI = ((number of parasite/100 cells in treated wells) × (% of infected HFFs in treated well)/(number of parasite/100 cells in untreated wells) × (% of infected HFFs in untreated wells)) × 100. Then, the 50% inhibitory concentration (IC50) was calculated using Prism software (Prism 4 for Mac OS X, version 5.0b, San Diego, CA, USA).

[4] = system: T. gondii type I RH strain; experiment: Acute toxoplasmosis survival study in CD1 mice; assay type: in vivo, mouse; details: for mouse survival, by day: once a day for 7 days, untreated infected mice succumbed by day 9
Procedure: To determine the in vivo anti-Toxoplasma effect of the molecule JF363 during the acute phase of infection, we analyzed the survival rate of non-inbred CD1 mice infected by the type I RH strain treated for […]. […] All untreated and infected mice succumbed by day 9 (Figure 3).
Non-inbred CD1a mice (Janvier Labs, Le Genest-Saint-Isle, France) were intraperitoneally infected with 100 tachyzoites of RH YFP strain in […] of PBS. Six hours post-infection and then once a day for 7 days, mice were treated per os with either 40 or 160 mg/kg of JF363 prepared in corn oil/5% DMSO. Control animals were treated with the vehicle alone. Animals were monitored each day and sacrificed when the limit points were reached.

[5] = Ex vivo biodistribution, ratios infected/control mice; assay type: in vivo; details: suggested from brain radioactivity of the iodinated radiotracer
Procedure: Twenty-four hours after injection and immediately following SPECT/CT image acquisitions, anesthetized mice were euthanized using CO2, and tissue samples (brain, heart, stomach, liver, salivary glands, abdominal fat, small intestine, muscle, pancreas, lungs, spleen, kidneys, blood, thyroid, large intestine, genital tract) and urine were harvested. Samples were weighed, and their radioactivity was determined with a gamma counter (Wizard2, PerkinElmer, Courtaboeuf, France). Results were corrected for decay, injected dose, and organ weight and expressed as % ID/g because the bodyweight (BW) of mice was different between both groups (normal and infected).
Standard uptake values (SUVs) were also calculated ((tissue activity/gram of tissue)/ID × BW). Due to high activity detected in the animal blood, results were also expressed as a ratio between %ID in a gram of organ and %ID in a gram of blood (org/blood ratio). Then, to assess the effect of Toxoplasma infection on the biodistribution of the iodoJF363, the ratios of radioactivity (infected/noninfected) were calculated.

COc1cccc(CC(=O)Nc2ccc(C(=O)NO)cc2)c1 [JF363]
IC50 [1]: 230 ± 15 nM
toxicity towards the hepatic host cells (cell confluency) [2]: did not present toxicity
IC50 ([3]; 24 h, read-out: IC50 range, strains other than haplogroup I and II, 24 h): 170 to 430 nM
IC50 ([3]; 24 h, strain GUY008-ABE, haplogroup 5, clade F, 24 h, mean ± SD of 3 experiments): 300 ± 210 nM
IC50 ([3]; 24 h, strain GUY009-AKO, haplogroup 10, clade F, 24 h, mean ± SD of 3 experiments): 430 ± 120 nM
IC50 ([3]; 24 h, strain GUY021-TOJ, haplogroup 10, clade F, 24 h, mean ± SD of 3 experiments): 270 ± 30 nM
IC50 ([3]; 24 h, strain GUY-JAG1, haplogroup 11, no clade, 24 h, mean ± SD of 3 experiments): 170 ± 340 nM
IC50 ([3]; 24 h, strain MAS, haplogroup 4, clade B, 24 h, mean ± SD of 3 experiments): 210 ± 10 nM
IC50 ([3]; 24 h, strain Prugniaud, haplogroup 2, clade D, 24 h, mean ± SD of 3 experiments): 270 nM
IC50 ([3]; 24 h, strain RH-YFP, haplogroup 1, clade A, 24 h, mean ± SD of 3 experiments): 560 ± 50 nM
IC50 ([3]; 24 h, strain VEG, haplogroup 3, clade C, 24 h, mean ± SD of 3 experiments): 180 ± 70 nM
IC50 ([3]; all tested T. gondii strains, depending on the haplogroup, read-out: IC50 range): 170 to 560 nM
mouse survival, by day ([4]; 40 mg/kg oral): 11 days
increase of mouse survival ([4]; 40 mg/kg oral, lethal dose of RH strain): two days
mouse survival, by day ([4]; 160 mg/kg oral): 14 days
blood–brain barrier permeability [5]: suggests a permeability of the blood–brain barrier
